Results taken from patent US20240059691A1 (KALVISTA PHARMACEUTICALS LIMITED, priority 2020, published 2024).

Columns and labels:
Type in all cases: biochemical
[1] = target: Human Factor XIIa (Homo sapiens (Human), UniProt P00748); test: Determination of FXIIa inhibition (fluorogenic substrate H-DPro-Phe-Arg-AFC, IC50 assay); settings: substrate H-DPro-Phe-Arg-AFC at Km, 25° C.; class scale A-G
Method in brief: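 IC50 derived from % remaining activity, taken as the linear fluorescence rate over a 5 min read at 25° C. Substrate H-DPro-Phe-Arg-AFC was used at its Km (Michaelis-Menten) with human FXIIa and serial compound dilutions, 25° C.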

[2] = target: KLK1 (Homo sapiens (Human), UniProt P06870); test: Determination of related protease inhibition: KLK1 (fluorogenic substrate at Km); settings: 25° C.
Chain of KLK1 (P06870 25-262): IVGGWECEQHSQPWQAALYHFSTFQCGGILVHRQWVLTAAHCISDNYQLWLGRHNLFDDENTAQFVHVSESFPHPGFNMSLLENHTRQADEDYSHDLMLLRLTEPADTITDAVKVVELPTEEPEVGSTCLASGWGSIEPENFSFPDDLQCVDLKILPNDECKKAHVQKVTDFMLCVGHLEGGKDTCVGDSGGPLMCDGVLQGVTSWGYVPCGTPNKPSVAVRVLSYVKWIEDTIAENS
Experimental: Determination of Related Protease Inhibition
In vitro inhibition of related proteases was determined using an ([…] assay based on standard literature methods (see e.g. Shori et al., Biochem. Pharmacol., 1992, 43, 1209; Bouckaert et al., European Journal of Medicinal Chemistry 110 (2016) 181). Human serine protease enzymes Plasma Kallikrein, KLK1, FXa, Plasmin, Thrombin and Trypsin were assayed for enzymatic activity using an appropriate fluorogenic substrate at Km concentration, FXIa at fixed substrate concentration of 100 μM, and various concentrations of the test compound. Protease activity was measured by monitoring the accumulation of liberated fluorescence from the substrate over […]. The linear rate of fluorescence increase per minute was expressed as percentage (%) activity. IC50 values were calculated as the concentration of inhibitor giving 50% inhibition of the uninhibited enzyme activity (100%).

[3] = target: Plasma Kallikrein (Homo sapiens (Human), UniProt P03952); test: Determination of related protease inhibition: Plasma Kallikrein (fluorogenic substrate at Km); settings: 25° C., read-out: IC50 (human PKal)
Chain of Plasma Kallikrein (P03952 391-638): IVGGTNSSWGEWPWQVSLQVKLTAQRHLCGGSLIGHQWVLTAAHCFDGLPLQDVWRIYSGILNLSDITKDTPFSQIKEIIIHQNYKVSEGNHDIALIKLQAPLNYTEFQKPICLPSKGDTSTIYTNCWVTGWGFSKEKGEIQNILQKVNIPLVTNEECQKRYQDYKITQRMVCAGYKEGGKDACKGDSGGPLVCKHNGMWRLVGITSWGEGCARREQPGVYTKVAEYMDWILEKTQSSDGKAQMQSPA
Chain of Plasma Kallikrein (P03952 20-390 partner): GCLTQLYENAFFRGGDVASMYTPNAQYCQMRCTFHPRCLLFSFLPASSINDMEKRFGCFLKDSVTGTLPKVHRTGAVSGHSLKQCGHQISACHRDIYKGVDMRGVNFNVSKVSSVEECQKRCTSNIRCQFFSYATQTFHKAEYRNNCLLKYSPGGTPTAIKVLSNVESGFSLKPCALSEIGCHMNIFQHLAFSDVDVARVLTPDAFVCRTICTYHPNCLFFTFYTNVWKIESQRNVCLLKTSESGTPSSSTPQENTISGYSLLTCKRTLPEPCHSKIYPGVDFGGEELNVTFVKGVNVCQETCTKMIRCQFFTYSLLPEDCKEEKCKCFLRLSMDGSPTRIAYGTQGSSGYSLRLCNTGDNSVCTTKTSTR
Method in brief: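 IC50 derived as the concentration halving uninhibited activity, from linear fluorescence increase per minute monitored 5 min at 25 °C. Each human protease was run with its fluorogenic substrate at Km concentration across a range of test compound concentrations.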

Chain of Human Factor XIIa (P00748 373-615): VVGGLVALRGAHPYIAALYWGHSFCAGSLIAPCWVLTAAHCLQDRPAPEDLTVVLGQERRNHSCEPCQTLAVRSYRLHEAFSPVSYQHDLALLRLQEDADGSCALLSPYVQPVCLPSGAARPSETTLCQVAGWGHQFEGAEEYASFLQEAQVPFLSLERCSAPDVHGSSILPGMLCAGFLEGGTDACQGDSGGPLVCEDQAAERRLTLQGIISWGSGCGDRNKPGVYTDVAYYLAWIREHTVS

Row | Compound | IC50 [1] [µM] | IC50 [2] [µM] | IC50 [3] [µM]
1 | Cc1cc(N2CCn3c(nnc3C(F)(F)F)C2C)ncc1CNc1cccc2c(N)nccc12 (single isomer, unassigned) [Example 1304, (R*)-N5-((4-methyl-6-(8-methyl-3-(trifluoromethyl)-5,6-dihydro-[1,2,4]triazolo[4,3-a]pyrazin-7(8H)-yl)pyridin-3-yl)methyl)isoquinoline-1,5-diamine] | 3 to 10 | 3 to 10 | 
2 | CC(C)N1C[C@H]2C[C@@H]1CN2Cc1cc(CNc2cccc3c(N)nccc23)ccn1 [Example 4295, 5-N-[(2-{[(1R,4R)-5-isopropyl-2,5-diazabicyclo[2.2.1]heptan-2-yl]methyl}pyridin-4-yl)methyl]isoquinoline-1,5-diamine] | 10 to 40 | 10 to 40 | 
3 | CC1Cn2c(nnc2C(F)(F)F)CN1c1ccc(CNc2cccc3c(N)nccc23)cn1 (stereo not shown) [Example 1311, N5-((6-(6-Methyl-3-(trifluoromethyl)-5,6-dihydro-[1,2,4]triazolo[4,3-a]pyrazin-7(8H)-yl)pyridin-3-yl)methyl)isoquinoline-1,5-diamine] | 0.01 to 0.1 | 3 to 10 | 
4 | Cc1nnc2n1CCN(c1ccc(CNc3cccc4c(N)nccc34)cn1)CC2 [Example 1310, N5-((6-(3-methyl-5,6,8,9-tetrahydro-7H-[1,2,4]triazolo[4,3-d][1,4]diazepin-7-yl)pyridin-3-yl)methyl)isoquinoline-1,5-diamine] | 1 to 3 | 1 to 3 | 
5 | Nc1nccc2c(NCc3cnc(N4CCn5c(nnc5C(F)(F)F)C4)c(C(F)(F)F)c3)cccc12 [Example 1306, N5-((5-(trifluoromethyl)-6-(3-(trifluoromethyl)-5,6-dihydro-[1,2,4]triazolo[4,3-a]pyrazin-7(8H)-yl)pyridin-3-yl)methyl)isoquinoline-1,5-diamine] |  | 1 to 3 | 
6 | CN1CCC(CNc2ccc(CNc3cc(F)c4c(N)nccc4c3)cn2)CC1 [Example 1245, 8-fluoro-N6-((6-(((1-methylpiperidin-4-yl)methyl)amino)pyridin-3-yl)methyl)isoquinoline-1,6-diamine] | 3 to 10 |  | 3 to 10
7 | CN1CCC(CNc2ccc(CNc3cc4ccnc(N)c4cn3)cn2)CC1 [Example 1196, N6-((6-(((1-methylpiperidin-4-yl)methyl)amino)pyridin-3-yl)methyl)-2,7-naphthyridine-1,6-diamine] | 1 to 3 |  | 3 to 10
8 | Cc1cc2c(NCc3ccc(OCC4CCN(C)CC4)nc3)ccnc2[nH]1 [Example 1249, 2-methyl-N-((6-((1-methylpiperidin-4-yl)methoxy)pyridin-3-yl)methyl)-1H-pyrrolo[2,3-b]pyridin-4-amine] | 0.3 to 1 |  | > 40
9 | CN1CCC(CNc2ccc(CNc3cccc4c(N)ncc(F)c34)cn2)CC1 [Example 1194, 4-fluoro-N5-((6-(((1-methylpiperidin-4-yl)methyl)amino)pyridin-3-yl)methyl)isoquinoline-1,5-diamine] | 3 to 10 |  | > 40
10 | Nc1nccc2c(NCc3ccc(N4Cc5nccn5CC4CO)nc3)cccc12 (stereo not shown) [Example 1137, (7-(5-(((1-aminoisoquinolin-5-yl)amino)methyl)pyridin-2-yl)-5,6,7,8-tetrahydroimidazo[1,2-a]pyrazin-6-yl)methanol] | 1 to 3 |  | > 40
11 | Nc1nccc2c(NCc3ccc(N4CC5(CC(O)c6nccn65)C4)cc3)cccc12 (stereo not shown) [Example 2253, 1-(4-(((1-aminoisoquinolin-5-yl)amino)methyl)phenyl)-6′,7′-dihydrospiro[azetidine-3,5′-pyrrolo[1,2-a]imidazol]-7′-ol] | 3 to 10 |  | > 40
12 | CN1CCC(COc2cc(CNc3cnc4c(N)nccc4c3)ccn2)CC1 [Example 4293, 3-N-({2-[(1-methylpiperidin-4-yl)methoxy]pyridin-4-yl}methyl)-1,7-naphthyridine-3,8-diamine] | 0.3 to 1 |  | > 40
13 | CN1CCC(CNc2ccc(CNc3cc(C(F)(F)F)cc4[nH]c(Cl)cc34)cn2)CC1 [Example 1262, 2-chloro-N-((6-(((1-methylpiperidin-4-yl)methyl)amino)pyridin-3-yl)methyl)-6-(trifluoromethyl)-1H-indol-4-amine] | 1 to 3 |  | 3 to 10
14 | CC(C)(O)[C@H]1CCN(c2ccc(CNc3cccc4c(N)nccc34)cn2)C1 [Example 1131, 2-[(3S)-1-[5-[[(1-Amino-5-isoquinolyl)amino]methyl]-2-pyridyl]pyrrolidin-3-yl]propan-2-ol] | 1 to 3 |  | 10 to 40
15 | Nc1nccc2c(NCc3ccc(N4CCn5ncc(CO)c5C4)nc3)cccc12 [Example 1269, (5-(5-(((1-aminoisoquinolin-5-yl)amino)methyl)pyridin-2-yl)-4,5,6,7-tetrahydropyrazolo[1,5-a]pyrazin-3-yl)methanol] | 10 to 40 |  | > 40
16 | Cc1cnc2[nH]ccc2c1NCc1ccc(NCC2CCN(C)CC2)nc1 [Example 1205, 5-methyl-N-((6-(((1-methylpiperidin-4-yl)methyl)amino)pyridin-3-yl)methyl)-1H-pyrrolo[2,3-b]pyridin-4-amine] | 10 to 40 |  | > 100
17 | COc1cc(NCc2ccc(NCC3CCN(C)CC3)nc2)cc2ccncc12 [Example 1103, 8-methoxy-N-((6-(((1-methylpiperidin-4-yl)methyl)amino)pyridin-3-yl)methyl)isoquinolin-6-amine] | 10 to 40 |  | 10 to 40
18 | CN1CCC(CNc2ccc(CNc3nccc4[nH]ccc34)cn2)CC1 [Example 1223, N-((6-(((1-methylpiperidin-4-yl)methyl)amino)pyridin-3-yl)methyl)-1H-pyrrolo[3,2-c]pyridin-4-amine] | 40 to 100 |  | > 40

More lines, now with the values ahead:

Row | IC50 [1] [µM] | IC50 [2] [µM] | IC50 [3] [µM] | Compound
19 | 0.3 to 1 | 3 to 10 |  | Nc1nccc2c(NCc3ccc(N4CCn5c(nnc5C(F)(F)F)C4)nn3)cccc12 [Example 9004, N5-((6-(3-(Trifluoromethyl)-5,6-dihydro-[1,2,4]triazolo[4,3-a]pyrazin-7(8H)-yl)pyridazin-3-yl)methyl)isoquinoline-1,5-diamine]
20 | 1 to 3 |  | > 100 | Cc1cc2c(NCc3ccnc(OCC4CCN(C)CC4)c3)ccnc2[nH]1 [Example 4465, 2-methyl-N-((2-((1-methylpiperidin-4-yl)methoxy)pyridin-4-yl)methyl)-1H-pyrrolo[2,3-b]pyridin-4-amine]
21 | 0.1 to 0.3 |  | > 4 | Cc1cn2c(n1)CC(COc1cc(CNc3ccc4c(N)ncc(Cl)c4c3)ccn1)CC2 (stereo not shown) [Example 4309, 4-chloro-6-N-{[2-({2-methyl-5H,6H,7H,8H-imidazo[1,2-a]pyridin-7-yl}methoxy)pyridin-4-yl]methyl}isoquinoline-1,6-diamine]
22 | 0.1 to 0.3 |  | 10 to 40 | Nc1ncc(Cl)c2cc(NCc3ccnc(OCC4CCCn5ccnc54)c3)ccc12 (single isomer, unassigned) [Example 4450, (S*)-4-chloro-N6-((2-((5,6,7,8-tetrahydroimidazo[1,2-a]pyridin-8-yl)methoxy)pyridin-4-yl)methyl)isoquinoline-1,6-diamine]
23 | 0.1 to 0.3 |  | > 40 | Nc1ncc(Cl)c2cc(NCc3ccnc(OCC4CCCn5ccnc54)c3)ccc12 (stereo not shown) [Example 4443, 4-chloro-N6-((2-((5,6,7,8-tetrahydroimidazo[1,2-a]pyridin-8-yl)methoxy)pyridin-4-yl)methyl)isoquinoline-1,6-diamine]
24 | 3 to 10 |  | > 100 | CN1CCC(COc2cc(CNc3ccc4cnccc4c3F)ccn2)CC1 [Example 4466, 5-fluoro-N-((2-((1-methylpiperidin-4-yl)methoxy)pyridin-4-yl)methyl)isoquinolin-6-amine]
25 | 0.3 to 1 |  | > 40 | Nc1ncc(Cl)c2cc(NCc3ccnc(OCC4CCCn5ccnc54)c3)ccc12 (single isomer, unassigned) [Example 4451, (R*)-4-chloro-N6-((2-((5,6,7,8-tetrahydroimidazo[1,2-a]pyridin-8-yl)methoxy)pyridin-4-yl)methyl)isoquinoline-1,6-diamine]
26 | 0.3 to 1 |  | > 40 | Nc1nccc2c(CCc3ccnc(OCC4CCn5ccnc5C4)c3)cccc12 (stereo not shown) [Example 4452, 5-(2-(2-((5,6,7,8-tetrahydroimidazo[1,2-a]pyridin-7-yl)methoxy)pyridin-4-yl)ethyl)isoquinolin-1-amine]
27 | 0.3 to 1 |  | > 40 | Nc1ncc(Cl)c2cc(NCc3ccnc(OCC4CCn5cc(CO)nc5C4)c3)ccc12 (stereo not shown) [Example 4449, (7-(((4-(((1-amino-4-chloroisoquinolin-6-yl)amino)methyl)pyridin-2-yl)oxy)methyl)-5,6,7,8-tetrahydroimidazo[1,2-a]pyridin-2-yl)methanol]
28 | 0.1 to 0.3 |  | > 4 | Nc1nccc2c(NCc3ccnc(OCC4CCn5ccnc5C4)c3)cccc12 (single isomer, unassigned) [Example 4431, (R*)-N5-((2-((5,6,7,8-tetrahydroimidazo[1,2-a]pyridin-7-yl)methoxy)pyridin-4-yl)methyl)isoquinoline-1,5-diamine]
